Results: PubChem BioAssay AID1963426 (Molecular Pharmacology Branch, DTP, NCI, 2024)
One block for each compound: values may come before it.

Test system: 186277-243-T-J2-PDC complex spheroid growth, % test/control
Test: Anticancer human tumor 186277-243-T-J2-PDC patient-derived colon adenocarcinoma cell line growth inhibition [Asc]
Details: for IC50: curve of first compound; for viability, T/C: stronger effect = lower value
Method: Multicellular complex tumor spheroid response to apoptosis pathway targeting inhibitors Alrizomadlin, Pelcitoclax, and Dasminapant in combination with a variety of drugs and investigational agents in selected tumor cell lines
The MDM2 inhibitor alrizomadlin, the Bcl-2/Bcl-xL inhibitor pelcitoclax, and the IAPs inhibitor dasminapant were evaluated both individually and in combination with standard of care and investigational anticancer small molecules within a complex spheroid model of solid tumors. . Complex spheroids include a stromal component modeled by human endothelial cells (HUVEC) and fibroblasts modeled by human mesenchymal stem cells (MSCs). The concentration ranges selected for each drug and investigational agent were based upon clinically achievable concentrations if the clinical Cmax of the agent was known.
Compounds. The drugs and investigational agents: alrizomadlin (APG-115; NSC831270), pelcitoclax (APG-1252; NSC835773), dasminapant (APG-1387;NSC834197), TAK-243 (NSC785004), copanlisib (NSC809693), olaparib (NSC753686), talazoparib (NSC767125), cobimetinib (NSC 768068), eltanexor (KPT-8602, NSC 794443), abemaciclib (NSC 768073), sotorasib (NSC818433), adagrasib (NSC 831453), MRTX-1133 (NSC 836407), Iadademestat (ORY1001, NSC 806812), and RMC-4630 (NSC839698), were obtained from the NCI Developmental Therapeutics Program Chemical Repository. The FDA-approved anticancer drug set is available from the Developmental Therapeutics Program at https://dtp.cancer.gov/organization/dscb/obtaining/available plates.htm. […] The stock solutions were prepared in dimethyl sulfoxide (DMSO, Sigma-Aldrich, St. Louis, MO, cat. D2650) at 800-fold the tested concentration and stored at -70 degrees C prior to their use. All drugs and investigational agents were tested over a range starting from a high concentration at or near the clinical Cmax and decreasing in half-log increments. If the clinical Cmax for an agent had not been determined, the highest concentration tested was 10 microM.
The patient-derived cancer (PDC) cell lines include five colon adenocarcinomas: 186277-243-T-J2-PDC, 616215-338-R-J1-PDC, 439559-082-T-J2-PDC, 463943-066-T-J2-PDC, and 519858-162-T-J1-PDC; three pancreatic carcinomas: 323965-272-R-J2-PDC, 521955-158-R6-J3-PDC, and 521955-158-R2-J5-PDC; two uterine sarcomas: 327498-152-R-J2-PDC and 993429-296-R-J1-PDC; two rhabdomyosarcomas: 755483-174-R-J1-PDC and 772245-204-R-J1-PDC; two soft tissue sarcomas: 126254-015-R-J1-PDC and 494315-158-R-J1-PDC; two malignant fibrous histiocytomas: 317291-083-R-J1-PDC and 596521-263-R-J1-PDC; two breast carcinomas: 171881-019-R-J1-PDC and 885512-296-R-J2-PDC; and one ovarian carcinoma: 6556581-035-R-J-PDC were obtained from the NCI PDMR, (https://pdmr.cancer.gov). The established cell lines HSSY-2 synovial sarcoma (RRID:CVCL 8719), SYO-1 synovial sarcoma (RRID:CVCL_7146), MPNST malignant peripheral neural sheath tumor were obtained from the Sloan Kettering Institute. The following established cell lines were purchased from the American Type Culture Collection (ATCC, Manassas, VA), Sor the received from the NCI repository:, PANC-1 pancreatic carcinoma (CRL-1469, RRID:CVCL_0480), OVCAR-5 ovarian carcinoma (RRID:CVCL_1628), OVCAR-8 ovarian carcinoma (RRID:CVCL_1629), , MCF-7 breast carcinoma (CRL-12584, RRID:CVCL_0031), MDA-MB-231 breast carcinoma (CRL-12532, RRID:CVCL_0062), NCI-H1876 small cell lung carcinoma (CRL-5902, RRID:CVCL_1503), NCI-H510A small cell lung carcinoma (HTB-184, RRID:CVCL_1565), NCI-H1417 (CRL-5869, RRID:CVCL_1469), and NCI-H196 small cell lung carcinoma (CRL-5823, RRID:CVCL_1509). Dr. Peter Houghton (Greehey Children's Cancer Research Institute, University of Texas Health Science Center, San Antonio, TX) provided Rh-18 rhabdomyosarcoma (RRID:CVCL_1659). Pooled donor human umbilical vein endothelial cells (HUVEC, Lonza, cat. CC-2519) and human mesenchymal stem cells (hMSC, Lonza, cat. PT-2501) were purchased from Lonza (Walkersville, MD).
Cell Culture. […]
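Also: spheroids exposed to agents for 7 days.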
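For viability, T/C in this document: 100% = DMSO vehicle control wells.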

- IC50 (second compound 0.03 µM): 70.4 nM
- IC50 (second compound 0.0949 µM): 23.4 nM
- IC50 (second compound 0.3 µM): 6.95 nM
- IC50 (second compound 0.949 µM): < 0.949 nM
- IC50 (second compound 3 µM): < 0.949 nM
SMILES: NC(=O)C(=Cn1cnc(-c2cc(C(F)(F)F)cc(C(F)(F)F)c2)n1)c1cncnc1 + CCN1C(C(=O)NC23CCC(C(=O)O)(CC2)CC3)C(c2cccc(Cl)c2F)C2(C(=O)Nc3cc(Cl)ccc32)C12CCCCC2
- viability, T/C (second compound 0.03 µM, first compound 0.000949 µM): 111%
- viability, T/C (second compound 0.03 µM, first compound 0.003 µM): 113%
- viability, T/C (second compound 0.03 µM, first compound 0.00949 µM): 81.5%
- viability, T/C (second compound 0.03 µM, first compound 0.03 µM): 60.4%
- viability, T/C (second compound 0.03 µM, first compound 0.0949 µM): 56.3%
- viability, T/C (second compound 0.03 µM, first compound 0.3 µM): 5.86%
- viability, T/C (second compound 0.0949 µM, first compound 0.000949 µM): 109%
- viability, T/C (second compound 0.0949 µM, first compound 0.003 µM): 83.3%
- viability, T/C (second compound 0.0949 µM, first compound 0.00949 µM): 51.7%
- viability, T/C (second compound 0.0949 µM, first compound 0.03 µM): 48%
- viability, T/C (second compound 0.0949 µM, first compound 0.0949 µM): 46.1%
- viability, T/C (second compound 0.0949 µM, first compound 0.3 µM): 2.91%
- viability, T/C (second compound 0.3 µM, first compound 0.000949 µM): 65.2%
- viability, T/C (second compound 0.3 µM, first compound 0.003 µM): 58.8%
- viability, T/C (second compound 0.3 µM, first compound 0.00949 µM): 45.3%
- viability, T/C (second compound 0.3 µM, first compound 0.03 µM): 34.1%
- viability, T/C (second compound 0.3 µM, first compound 0.0949 µM): 14%
- viability, T/C (second compound 0.3 µM, first compound 0.3 µM): 0.39%
- viability, T/C (second compound 0.949 µM, first compound 0.000949 µM): 44.6%
- viability, T/C (second compound 0.949 µM, first compound 0.003 µM): 40.1%
- viability, T/C (second compound 0.949 µM, first compound 0.00949 µM): 25.3%
- viability, T/C (second compound 0.949 µM, first compound 0.03 µM): 7.03%
- viability, T/C (second compound 0.949 µM, first compound 0.0949 µM): 1.37%
- viability, T/C (second compound 0.949 µM, first compound 0.3 µM): 0.18%
- viability, T/C (second compound 3 µM, first compound 0.000949 µM): 24.1%
- viability, T/C (second compound 3 µM, first compound 0.003 µM): 20.6%
- viability, T/C (second compound 3 µM, first compound 0.00949 µM): 3.76%
- viability, T/C (second compound 3 µM, first compound 0.03 µM): 0.85%
- viability, T/C (second compound 3 µM, first compound 0.0949 µM): 0.44%
- viability, T/C (second compound 3 µM, first compound 0.3 µM): 0.84%

- IC50 (second compound 0.03 µM): > 100 nM
- IC50 (second compound 0.0949 µM): > 100 nM
- IC50 (second compound 0.3 µM): > 100 nM
- IC50 (second compound 0.949 µM): > 100 nM
- IC50 (second compound 3 µM): < 0.316 nM
SMILES: NC1CCC(NC2CC2c2ccccc2)CC1 (stereo not given) + CCN1C(C(=O)NC23CCC(C(=O)O)(CC2)CC3)C(c2cccc(Cl)c2F)C2(C(=O)Nc3cc(Cl)ccc32)C12CCCCC2
- viability, T/C (second compound 0.03 µM, first compound 0.000316 µM): 111%
- viability, T/C (second compound 0.03 µM, first compound 0.001 µM): 138%
- viability, T/C (second compound 0.03 µM, first compound 0.00316 µM): 112%
- viability, T/C (second compound 0.03 µM, first compound 0.01 µM): 106%
- viability, T/C (second compound 0.03 µM, first compound 0.0316 µM): 123%
- viability, T/C (second compound 0.03 µM, first compound 0.1 µM): 113%
- viability, T/C (second compound 0.0949 µM, first compound 0.000316 µM): 114%
- viability, T/C (second compound 0.0949 µM, first compound 0.001 µM): 132%
- viability, T/C (second compound 0.0949 µM, first compound 0.00316 µM): 134%
- viability, T/C (second compound 0.0949 µM, first compound 0.01 µM): 131%
- viability, T/C (second compound 0.0949 µM, first compound 0.0316 µM): 131%
- viability, T/C (second compound 0.0949 µM, first compound 0.1 µM): 141%
- viability, T/C (second compound 0.3 µM, first compound 0.000316 µM): 93.4%
- viability, T/C (second compound 0.3 µM, first compound 0.001 µM): 97.8%
- viability, T/C (second compound 0.3 µM, first compound 0.00316 µM): 94.9%
- viability, T/C (second compound 0.3 µM, first compound 0.01 µM): 93.3%
- viability, T/C (second compound 0.3 µM, first compound 0.0316 µM): 92.9%
- viability, T/C (second compound 0.3 µM, first compound 0.1 µM): 91.3%
- viability, T/C (second compound 0.949 µM, first compound 0.000316 µM): 66.3%
- viability, T/C (second compound 0.949 µM, first compound 0.001 µM): 69.2%
- viability, T/C (second compound 0.949 µM, first compound 0.00316 µM): 66.1%
- viability, T/C (second compound 0.949 µM, first compound 0.01 µM): 65.8%
- viability, T/C (second compound 0.949 µM, first compound 0.0316 µM): 67.9%
- viability, T/C (second compound 0.949 µM, first compound 0.1 µM): 65.7%
- viability, T/C (second compound 3 µM, first compound 0.000316 µM): 42.1%
- viability, T/C (second compound 3 µM, first compound 0.001 µM): 43.6%
- viability, T/C (second compound 3 µM, first compound 0.00316 µM): 44.1%
- viability, T/C (second compound 3 µM, first compound 0.01 µM): 39.5%
- viability, T/C (second compound 3 µM, first compound 0.0316 µM): 41.4%
- viability, T/C (second compound 3 µM, first compound 0.1 µM): 42.8%
